US20240390390A1, “NITRIC OXIDE RELEASING PROSTAMIDE AS NEUROPROTECTIVE AGENT” (Nicox SA, priority 2021, published 2024)

How the values were obtained:
[1] = system: subjects with open-angle glaucoma or ocular hypertension, non-study eyes with normal IOP; conditions: 0.024% once daily in the evening up to 12 months, cited from earlier work
[2] = system: ischemia/reperfusion injury of the optic nerve induced by endothelin-1 (ET-1) in rabbits; test: Ophthalmic artery resistive index (OA-RI) by ecocolor Doppler in ET-1 ischemia/reperfusion rabbit model; format: in vivo, New Zealand white (NZW) rabbits; set-up: key: Pourcelot resistive index = (PSV−EDV)/PSV; conditions: for Ophthalmic artery resistive index (OA-RI), Baseline: prior to ET-1 dosing and prior to test item
Protocol: (§1) This series of experiments were performed to determine the effect of Compound (I) on ocular vascular reactivity i.e. ophthalmic artery resistive index (OA-RI) and, consequently, on retinal function after repeated ocular topical dosing in a well-defined model of ischemia/reperfusion injury of the optic nerve induced by the retrobulbar injection of endothelin-1 (ET-1) in rabbits.
(§2) Adult male New Zealand white (NZW) rabbits weighting 1.5-2.0 kg were used. The animals were kept in individual cages, food and water were provided ad libitum. The ischaemia/reperfusion lesion of the optic nerve was obtained by subtenonian injection twice a week with 500 μL of 250 nM ET-1 (Fluka, Israel) in water using a lacrimal cannula under anesthesia produced by ketamine (20 mg/kg, Lobotor, ACME, 100 mg/ml) and xilazine (5 mg/kg, Sedaxylan 2%, Dechra Veterinary Products S.r.l) intramuscularly. Animals were treated with ET-1 for 6 weeks. Compound (I) 0.1% (1 mg/mL) solution or vehicle were administered as eye drop (30 μL/eye), twice a day (around 10:00 AM and 4:00 PM) starting 2 weeks after ET-1 first dosing until the end of the experiment.
Ophthalmic Artery Resistive Index (OA-RI) was estimated using an ecocolor Doppler DynaView™ II SSD-1700 (Aloka Holding Europe AG, Milan, Italy) prior to ET-1 treatment (baseline, time 0), and weekly thereafter until the end of the study. From week 2 to week 4, morning dosing with test article or vehicle were omitted on the day of hemodynamic measurements in order to have virtually drug-free conditions (16-18 h post last dose) at the time of testing. Pourcelot resistive index for ophthalmic artery (OA-RI) was calculated as following: (PSV−EDV)/PSV where PSV and EDV refer to Peak Systolic Velocity and End Diastolic Velocity, respectively.

[3] = system: ischemia/reperfusion injury of the optic nerve induced by endothelin-1 (ET-1) in rabbits; test: Electroretinogram (ERG) in ET-1 ischemia/reperfusion rabbit model; format: in vivo, New Zealand white (NZW) rabbits
Protocol: as §1, §2
Electroretinogram (ERG). Topical anesthesia was applied using one drop […] oxybuprocaine hydrochloride, 4 mg/ml. The eyes were then dilated by topical application of tropicamide 1% and, when needed, adapted to darkness for at least 2 hours prior to standard ERGs recording in both eyes using contact lens corneal electrodes so to have sufficiently stable and amplified recordings. The ERG signals [(amplitude, microvolts (μV)] were recorded using Retimax (CSO, Florence, Italy) and according to the current International Society for Clinical Electrophysiology (ISCEV) indications; specifically, the dark-adapted 0.01 ERG (rod response), dark-adapted 3.0 ERG (combined rod-cone response) and, light-adapted 3.0 (cone response) were recorded. Flashes intensity varied: • a) from 0.01 photopic cd·s·m^−2 to 0.025 scotopic candela-seconds per meter squared (cd·s·m^−2) with a minimum interval between flashes of 2 s for the dark-adapted 0.01 ERG; • b) from 3.0 photopic cd·s·m^−2 to 7.5 scotopic cd·s·m^−2 with a minimum interval between flashes of 10 s for the dark-adopted 3.0 ERG • c) from 3.0 photopic cd·s·m^−2 to 7.5 scotopic cd·s·m^−2 with a minimum interval between flashes of 0.5 s and a light adaptation strength of 30 cd·s·m^−2 for the light-adopted 3.0 ERG. In all cases ERG recordings lasted 250 ms. […].
Measurements were taken prior ET-1 first dose (baseline, time 0) and then at the end of week-2 (prior to vehicle- or Compound (I) first day-first dose) and at the end of week-6 (36 h after vehicle or Compound (I)-last day-last dose).

[4] = system: patients with open-angle glaucoma or ocular hypertension; test: Phase 2 clinical trial, reduction of elevated intraocular pressure (IOP); format: in vivo, human
Protocol: The efficacy of Compound (I) for the reduction of elevated intraocular pressure (IOP) was evaluated in a Phase 2 clinical trial conducted in 433 patients with open-angle glaucoma or ocular hypertension, treated once daily for 27 days.

[5] = 0.1% solution, 30 μL/eye eye drop bid
[6] = 0.1% solution, 30 μL/eye eye drop bid, listed as Cpd (1)
[7] = 0.1% solution, 30 μL/eye bid, 36 h after last dose, ± S.E.M
[8] = after 2 weeks ET-1, prior to first dose of test item, ± S.E.M
[9] = prior to ET-1 and test item, ± S.E.M

For `O=C(CCC/C=C\C[C@@H]1[C@@H](CC[C@@H](O)CCc2ccccc2)[C@H](O)C[C@@H]1O)OCCCCO[N+](=O)[O-]` [Latanoprostene Bunod], the “IOP lowering from baseline, Japanese population” value ([1]; fellow eyes with baseline IOP ≤19 mmHg) is given as 3.2-3.9 mmHg and the “IOP lowering from baseline, Caucasian population” value ([1]; fellow eyes with baseline IOP ≤21 mmHg) is given as 4.2-4.9 mmHg.
With `CCNC(=O)CCC/C=C\C[C@@H]1[C@@H](/C=C/[C@H](CCc2ccccc2)OC(=O)CCCCCO[N+](=O)[O-])[C@H](O)C[C@@H]1O` [Compound (I), Hexanoic acid, 6-(nitrooxy)-, (1S,2E)-3-[(1R,2R,3S,5R)-2-[(2Z)-7-(ethylamino)-7-oxo-2-hepten-1-yl]-3,5-dihydroxycyclopentyl]-1-(2-phenylethyl)-2-propen-1-yl ester] the “Ophthalmic artery resistive index (OA-RI), ET-1 (3-weeks) + Test items (1 week daily bid)” value [2, 5] was 0.35 ± 0.03, the “Ophthalmic artery resistive index (OA-RI), ET-1 (4-weeks) + Test items (2 weeks daily bid)” value [2, 5] was 0.32 ± 0.03 and the “Ophthalmic artery resistive index (OA-RI), ET-1 (5 weeks) + Test items (3 weeks daily bid)” value [2, 5] was 0.32±0.03. For the same compound, the “Ophthalmic artery resistive index (OA-RI), ET-1 (6 weeks) + Test items (4 weeks daily bid)” value [2, 5] was 0.33±0.02, the “Ophthalmic artery resistive index (OA-RI), ET-1 (5 weeks) + Test items (3 weeks daily bid)” value [2, 6] was 0.32 ± 0.03 and the “Ophthalmic artery resistive index (OA-RI), ET-1 (6 weeks) + Test items (4 weeks daily bid)” value [2, 6] was 0.33 ± 0.02. For the same compound, the “Ophthalmic artery resistive index (OA-RI), ET-1 (2 weeks)” value ([2]; after 2 weeks ET-1, prior to first dose of test item) was 0.36 ± 0.03, the “Ophthalmic artery resistive index (OA-RI), Baseline” value [2] was 0.30±0.02 and the “Ophthalmic artery resistive index (OA-RI), Baseline” value ([2]; listed as Cpd (1)) was 0.30 ± 0.02. For the same compound, the “ERG Amplitude, Dark adapted 0.01 (Rod response), ET-1 (6 weeks) + Test items (4 weeks daily bid)” value [3, 7] was 44.3 ± 4.5 μV, the “ERG Amplitude, Dark adapted 3.0 (Rod/cone response), ET-1 (6 weeks) + Test items (4 weeks daily bid)” value [3, 7] was 122.8 ± 11.4 μV and the “ERG Amplitude, Light adapted 3.0 (cone response), ET-1 (6 weeks) + Test items (4 weeks daily bid)” value [3, 7] was 64.2 ± 6.8 μV. For the same compound, the “ERG Amplitude, Dark adapted 0.01 (Rod response), ET-1 (2 weeks)” value [3, 8] was 37.6 ± 6.2 μV, the “ERG Amplitude, Dark adapted 3.0 (Rod/cone response), ET-1 (2 weeks)” value [3, 8] was 96.6 ± 9.4 μV and the “ERG Amplitude, Light adapted 3.0 (cone response), ET-1 (2 weeks)” value [3, 8] was 60.2 ± 4.3 μV. For the same compound, the “Impairment in the ERG wave amplitude versus vehicle” value ([3]; eyes treated for 4 weeks, dark-adapted 0.01, dark-adapted 3.0 and Light-adapted 3.0) was “significantly (p<0.05) less impairment”, the “ERG Amplitude, Dark adapted 0.01 (Rod response), Baseline” value [3, 9] was 42.3 ± 6.9 μV and the “ERG Amplitude, Dark adapted 3.0 (Rod/cone response), Baseline” value [3, 9] was 118.0 ± 10.3 μV. The “ERG Amplitude, Light adapted 3.0 (cone response), Baseline” value [3, 9] was 67.6 ± 6.4 μV, the “Conjunctival hyperemia, treated patients” value ([4]; Phase 2, highest dose tested) was 16.8% and the Tolerability ([4]; Phase 2, once daily for 27 days) was “well tolerated”.
